Laboratory results reported in paper PMC4861662 (ChemMedChem, 2016).
Read-outs that look alike come from different tables or passages of the source.

Experiments:
[1] = container M2, ref [20a],[21a], cited from earlier work; for Initial slope of the PSD: 20 mM sodium phosphate buffered D2O, pD 7.4, rt; for Krel: referenced to the weakest binding container (generally HP-β-CD), TL = too large to be determined because slope ≈ 1
Phase solubility diagram [2] = settings: container M2
Phase solubility diagram [3] = settings: for Highest drug concentration achieved with container / Initial slope of the PSD / Krel / Ka of container•drug complex: container M2C2; for Initial slope of the PSD: 20 mM sodium phosphate buffered D2O, pD 7.4, rt; for Krel: referenced to the weakest binding container (generally HP-β-CD); for Ka of container•drug complex: from PSD slope and S0 (equation 1)
Phase solubility diagram [4] = settings: for Highest drug concentration achieved with container / Initial slope of the PSD / Ka of container•drug complex: container SBE-β-CD; for Initial slope of the PSD: 20 mM sodium phosphate buffered D2O, pD 7.4, rt; for Ka of container•drug complex: from PSD slope and S0 (equation 1)
[5] = container HP-β-CD; from PSD slope and S0 (equation 1); ref [20a],[21a]; cited from earlier work
Phase solubility diagram [6] = settings: for Initial slope of the PSD / Ka of container•drug complex / Krel: container M2C4; for Initial slope of the PSD: 20 mM sodium phosphate buffered D2O, pD 7.4, rt, Gel = gel formed; for Ka of container•drug complex: from PSD slope and S0 (equation 1); for Krel: referenced to the weakest binding container (generally HP-β-CD)
[7] = Inherent solubility of the drug; settings: 20 mM sodium phosphate buffered D2O, pD 7.4, rt
[8] = Inherent solubility of container by 1H NMR assay of saturated solution; type: physicochemical; settings: SBE-β-CD

inherent solubility of container [8] [mM]	Molecule	Initial slope of the PSD [1]	Krel [1]	Highest drug concentration achieved with container (Phase solubility diagram [2]) [mM]	Highest drug concentration achieved with container (Phase solubility diagram [3]) [mM]	Initial slope of the PSD (Phase solubility diagram [3])	Krel (Phase solubility diagram [3])	Highest drug concentration achieved with container (Phase solubility diagram [4]) [mM]	Initial slope of the PSD (Phase solubility diagram [4])	Ka of container•drug complex [5] [M⁻¹]	Ka of container•drug complex (Phase solubility diagram [3]) [M⁻¹]	Ka of container•drug complex (Phase solubility diagram [4]) [M⁻¹]	concentration of M2C4 above which gels form with drug (Phase solubility diagram [6]; M2C4 used as solubilizing agent)	Initial slope of the PSD (Phase solubility diagram [6])	Ka of container•drug complex (Phase solubility diagram [6]) [M⁻¹]	Krel (Phase solubility diagram [6])	S0, inherent solubility of the drug [7] [mM]	gel formation (Phase solubility diagram [3]; 68 mM container M2C2)	gel formation (Phase solubility diagram [6]; 68 mM container M2C4)	average Krel relative to HP-β-CD (Phase solubility diagram [4]; SBE-β-CD versus HP-β-CD, averaged over drugs of the test set)
	COc1cc2c(cc1O)CC[C@@H]1[C@@H]2CC[C@]2(C)[C@@H](O)CC[C@@H]12 [2-Methoxy estradiol]	0.79	47/–	6.42	34.1	0.49	12/–	35.9	0.21											
	CCCSc1ccc2nc(NC(=O)OC)[nH]c2c1 [Albendazole]	0.48	62	4.48	2.78	0.035	2.4	3.94	0.027	5400	14000	11000								
	CCCCc1oc2ccccc2c1C(=O)c1cc(I)c(OCCN(CC)CC)c(I)c1 [Amiodarone]	1.03				0.65	19		0.60	1500	28000	23000	greater than 16 mM							
	O=C1CCc2ccc(OCCCCN3CCN(c4cccc(Cl)c4Cl)CC3)cc2N1 [Aripiprazole]	0.31	8.8	3.20	9.26	0.28	7.7	8.44	0.048		17000	2200								
	CC[C@@]1(O)C(=O)OCc2c1cc1n(c2=O)Cc2cc3ccccc3nc2-1 [Camptothecin]	1.1		11.6	28.3	0.41	1	0	0		13000									
	C(=C\c1ccccc1)/CN1CCN(C(c2ccccc2)c2ccccc2)CC1 [Cinnarizine]					0.26	170		0.008		25000	580								
	C[C@]12CC[C@@H]3c4ccc(O)cc4CC[C@H]3[C@@H]1CC[C@@H]2O [Estradiol]	0.92	51			0.67	9.1		0.59	26000	230000	170000		0.59	160000	6.5				
	C#C[C@]1(O)CC[C@H]2[C@@H]3CCc4cc(O)ccc4[C@H]3CC[C@@]21C [Ethynyl Estradiol]	1.1		10.5	33.6			131		36000										
	COc1ccc2c(c1)c(CC(=O)O)c(C)n2C(=O)c1ccc(Cl)cc1 [Indomethacin]	0.47	67	6.70	6.69	0.13	11	9.92	0.23	2400	25000	51000								
	N[C@@H](Cc1ccc(N(CCCl)CCCl)cc1)C(=O)O [Melphalan]	1.1		16.1	38.2	0.43	6.0/–	87.8	0.50											
	O=C(NC1=CC(=O)[C@H]2O[C@H]2[C@H]1O)c1cc2ccccc2[nH]c1=O [PBS-1086]	0.89	3.5	12.5	16.5	0.70	1	0	0		510000						0.0045			
	CC/C(=C(\c1ccccc1)c1ccc(OCCN(C)C)cc1)c1ccccc1 [Tamoxifen]	0.10	3.9							2400										
	Cc1c(Cl)cccc1Nc1ccccc1C(=O)O [Tolfenamic acid]	0.54	150	5.6	6.79	0.11	16	8.07	0.11	4100	66000	64000								
	C[C@@H](c1ncncc1F)[C@](O)(Cn1cncn1)c1ccc(F)cc1F [Voriconazole]			9.23	61.9	0.89	29	94.7	0.53		210000	30000		0.85	140000	19		no evidence of gel formation	no evidence of gel formation	
> 175	sulfobutylether-β-cyclodextrin [SBE-β-CD]																			12
